According to patent publication US9789116B2, “Compositions and methods of modulating short-chain dehydrogenase activity” (CASE WESTERN RESERVE UNIVERSITY, priority 2013, dated 2017):

Tests used:
[1] = tested on: wild-type mouse bone marrow; assay: Hematopoietic colonies from bone marrow treated ex vivo; assay type: cell-based; conditions: 1 uM, ex vivo on ice 2 hours; compared with SW033291
Excerpt: Treated marrow is again then plated into methylcellulose for counting of hematopoietic colonies.

[2] = molecular target: T1, recombinant 15-PGDH (Homo sapiens (Human), UniProt P15428); assay: Inhibition of enzymatic activity of recombinant 15-PGDH in vitro (NADH generation); assay type: biochemical
T1 sequence (P15428 whole entry): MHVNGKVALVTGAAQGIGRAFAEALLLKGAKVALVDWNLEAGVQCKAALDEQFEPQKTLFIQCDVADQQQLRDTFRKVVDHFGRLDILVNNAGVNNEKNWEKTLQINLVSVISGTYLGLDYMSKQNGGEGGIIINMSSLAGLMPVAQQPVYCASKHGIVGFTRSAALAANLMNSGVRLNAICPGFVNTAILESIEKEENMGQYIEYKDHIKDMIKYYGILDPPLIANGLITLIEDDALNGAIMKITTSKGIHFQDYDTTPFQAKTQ

[3] = Hepatocyte stability; assay type: in vitro ADME; conditions: hepatocytes in culture; read-out: Hepatocyte stability T½
Procedure: (§1) Time to inhibition refers to the time needed to inhibit the generation of NADH by 15-PGDH from the moment with drug is added into the reaction mix. Delta Tm refers to the shift in melting temperature of recombinant 15-PGDH in the presence of drug (with cofactor NADH also present). Concentration of Full Cell Line Reporter Induction refers to the concentration of drug that needs to be added to reporter cell line to achieve maximal induction of the 15-PGDH-luciferase gene fusion reporter cassette, as measured by luciferase assays. Hepatocyte stability refers to the half-life of compound in the presence of hepatocytes in culture. Toxicity refers to the concentration of compound needed to decrease cell numbers in a cell culture assay.

[4] = tested on: cell culture; assay: Toxicity in a cell culture assay (decrease of cell numbers); assay type: cell-based; conditions: concentration needed to decrease cell numbers in a cell culture assay
Procedure: as §1

[5] = tested on: A549 cells; assay: Cellular toxicity on A549 cells by CellTiter-Glo; assay type: cell-based; conditions: 24 hours, concentrations of up to 10 μM
Procedure: FIGS. 38(A-C) show assays of cellular toxicity on A549 cells at 24 hours of 15-PGDH inhibitors as assayed by CellTiter-Glo measurement.

[6] = tested on: mouse tissues (colon, bone marrow, liver, lung); assay: PGE2 in mouse tissues after IP injection; assay type: in vivo
Procedure: Shown is measurement by Elisa of PGE2 (ng PGE2/mg of tissue protein) from 4 mouse tissues: lung, liver, colon and bone marrow. […] Tissues were harvested for PGE2 assay at either 2 hour (2 h) or 3 hour (3 h) time points following drug injection.

[7] = tested on: 15-PGDH-luciferase fusion reporter in V9m, LS174T and V503 cells; assay: 15-PGDH-luciferase fusion gene reporter induction in colon cancer cell lines; assay type: cell-based; conditions: for luciferase activity of 15-PGDH luciferase fusion cells: V9m, LS174T, V503, various concentrations
[8] = molecular target: T1, recombinant 15-PGDH; assay: Melting temperature shift of recombinant 15-PGDH (SYPRO Orange); assay type: binding
[9] = tested on: lethally irradiated mice; assay: Homing of CFSE dye labeled bone marrow cells in lethally irradiated mice; assay type: in vivo, mouse
Procedure: Drugs are administered following radiation, following the transplant, and again at 8 hours after the transplant.

[10] = tested on: A549 cells; assay: PGE2 levels in medium of IL1-beta stimulated A549 cells; assay type: cell-based; conditions: for PGE2 induction compared with SW033291: 4 nM to 2500 nM
[11] = tested on: 15-PGDH mRNA; assay: 15-PGDH mRNA levels in colon cancer cell lines by real-time PCR; assay type: cell-based; conditions: treated colon cancer cell lines, real-time PCR
Excerpt: In these studies parental cell lines (not containing the 15-PGDH-luciferase reporter) are employed.

[12] = Chemical stability in aqueous solutions; assay type: physicochemical; conditions: over broad pH range
[13] = Solubility in water; assay type: physicochemical; conditions: pH=3
[14] = Stability with liver extracts; assay type: in vitro ADME; conditions: incubated with mouse, rat and human liver extracts
[15] = tested on: mice; assay: Immediate toxicity in mice; assay type: in vivo; conditions: over 24 hours, IP 50 mg/kg body weight

Question: Which “increase in number of bone marrow derived colonies” value [1] does the source give for `CCCCC(C)(C)[C@H](O)/C=C/[C@H]1[C@H](O)CC(=O)[C@@H]1C/C=C\CCCC(=O)O` [dmPGE2, 16,16-dimethyl PGE2] here?
Answer: slightly greater increase

Question: For `CC(=O)OCCCCS(=O)(=O)c1sc2nc(-c3cccs3)cc(-c3ccccc3)c2c1N` [SW209128, 4-((3-amino-4-phenyl-6-(thiophen-2-yl)thieno[2,3-b]pyridin-2-yl)sulfonyl)butyl acetate], which IC50 ([2]; read-out: Enzyme Inhibitor IC50 (nM) at 5 nM 15-PGDH, 5 nM recombinant human 15-PGDH) is on record?
Answer: 4910 nM

Question: What does the source list for `CCCC[S+]([O-])c1sc2nc(-c3cccs3)ccc2c1N` (centres unmarked) [SW206980]?
Answer: half-life [3]: 1.33 h; Toxicity [4]: >7.5 µM; effect on CellTitre-Glo levels [5]: No effect

Question: With `CCCCC[C@H](O)/C=C/[C@H]1[C@H](O)CC(=O)[C@@H]1C/C=C\CCCC(=O)O` [PGE2] as the compound, how does the “increase in number of bone marrow derived colonies” value [1] read?
Answer: lesser increase

Question: For (+) SW209415, which “time of peak PGE2” value ([6]; IP 0.5, 1.5 or 5 mg/kg) is on record?
Answer: 3 h

Question: And the “induction of PGE2 in lung, liver, colon and bone marrow” value ([6]; IP 0.5, 1.5 or 5 mg/kg, 2 h and 3 h)?
Answer: induction of PGE2 in all 4 tissues tested

Question: For `CCCC[S@](C)(O)c1sc2nc(-c3cccs3)cc(-c3ccccc3)c2c1N` [SW033291 isomer B], which “concentration at which some residual activity is seen” value ([7]; V9M, printed 'isomer B', context suggests isomer A) is on record?
Answer: 3.2 µM

Question: And the “concentration giving full activity in reporter” value ([7]; Vaco-9M (V9M))?
Answer: 0.1 µM

Question: What about the melting temperature ([8]; Differential Scanning Fluorimetry, shifted from 50.5° C.) of the same compound?
Answer: 68 °C

Question: What about the “IC50 lower than parent racemic mixture” value [2] of the same compound?
Answer: 40%

Question: For `COc1ccc2c(c1)c(CC(=O)O)c(C)n2C(=O)c1ccc(Cl)cc1` [indomethacin, reference compound], which “effect of SW033291 on homing in presence of COX inhibitor” value ([9]; SW033291 10 mg/kg IP plus Indomethacin) is on record?
Answer: near completely blocked

Question: For `COc1ccc(OC)c(N(CC(=O)Nc2cccnc2)S(=O)(=O)c2ccccc2)c1` [SW054384], which “PGE2 level in medium” value ([10]; compound added 24 hours before IL1-beta, maintained next 26 hours) is on record?
Answer: lower level of PGE2 produced

Question: What about the “15-PGDH mRNA levels” value [11] of the same compound?
Answer: do not in general alter 15-PGDH mRNA levels

Question: What about the “luciferase activity of 15-PGDH luciferase fusion cells” value [7] of the same compound?
Answer: increase luciferase activity

Question: And the “direct binding to 15-PGDH by melting temperature shift” value ([8]; 10 μM and 100 μM cofactor (NAD, NADH))?
Answer: cannot be demonstrated to bind 15-PGDH

Question: Which “PGE2 induction compared with SW033291” value [10] does the source give for `CCCC[S+]([O-])c1sc2nc(-c3nccs3)cc(-c3nccn3C)c2c1N` (centres unmarked) [SW209125, 2-(butylsulfinyl)-4-(1-methyl-1H-imidazol-2-yl)-6-(thiazol-2-yl)thieno[2,3-b]pyridin-3-amine] here?
Answer: increased activity relative to SW033291

Question: Which results are given for `CCCC[S+]([O-])c1sc2nc(-c3nccs3)ccc2c1N` (centres unmarked) [SW206992]?
Answer: exposure needed for maximal reporter induction ([7]; 24 hours, three cell line backgrounds): ≥ 1000 nM; Concentration for Full Cell Line Reporter Induction ([7]; maximal induction of 15-PGDH-luciferase reporter): >1 µM; Toxicity [4]: >7.5 µM; melting temperature ([8]; 10 μM protein, 20 uM compound, 100 μM NAD(+), control 49): 59 degrees; Time to inhibition (10 nM) ([2]; time needed to inhibit generation of NADH by 15-PGDH after drug is added): ~2 min; effect on CellTitre-Glo levels [5]: No effect

Question: With `CCCC[S+]([O-])c1sc2nc(-c3nccs3)cc(-c3cnc(C)n3C)c2c1N` (centres unmarked) [formula (XIII)] as the compound, how does the “PGE2 levels in colon, lung, liver and bone marrow” value ([6]; IP dose of 10 mg/kg body weight) read?
Answer: elevates PGE2 levels

Question: What about the “homing of hematopoietic stem cells following bone marrow transplantation” value ([9]; 10 mg/kg body weight) of the same compound?
Answer: increases homing

Question: What about the “chemical stability in aqueous solutions” value [12] of the same compound?
Answer: chemically stable

Question: And the solubility [13]?
Answer: 1000 µg/mL

Question: What about the “concentration inhibiting recombinant 15-PGDH” value ([2]; enzyme concentration approximately 6 nM) of the same compound?
Answer: 3 nM

Question: What about the “chemical stability with liver extracts” value [14] of the same compound?
Answer: chemically stable

Question: And the immediate toxicity [15]?
Answer: no immediate toxicity

Question: With `O=C(c1ccc2nc(-c3ccccc3)c(-c3ccccc3)nc2c1)N1CCCCC1` [SW145753] as the compound, how does the “15-PGDH activity in cells as reflected in PGE2 levels in medium” value ([10]; IL1-beta 23 hours, compound added for the last 5 hours) read?
Answer: clear inhibition of 15-PGDH activity in the cells

Question: And the “15-PGDH mRNA levels” value [11]?
Answer: do not in general alter 15-PGDH mRNA levels

Question: What about the “luciferase activity of 15-PGDH luciferase fusion cells” value [7] of the same compound?
Answer: increase luciferase activity

Question: Which “PGE2 induction compared with SW033291” value [10] does the source give for `CCCC[S+]([O-])c1sc2nc(-c3nccs3)cc(-c3nccs3)c2c1N` (centres unmarked) [SW209124, 2-(butylsulfinyl)-4,6-di(thiazol-2-yl)thieno[2,3-b]pyridin-3-amine] here?
Answer: increased activity relative to SW033291
